In ChEMBL document CHEMBL1914333, “Synthesis and evaluation of compounds that induce readthrough of premature termination codons” (Bioorg Med Chem Lett, 2011):
Active and inactive are the calls of the source. The calls are words filed in the database; no cut-off is given here.

Columns and labels:
[1] = biological target: T1, 80S Ribosome (Homo sapiens) (UniProt P08865+P42677+P62753+P15880+P23396+P61247+P62701+P22090+P46782+P62081+P62241+P46781+P46783+P62280+P25398+P62277+P62263+P62841+P62244+P62249+P08708+P62269+P39019+P60866+P63220+P62266+P62847+P62851+P62854+P62979+P62857+P62273+P62861+P39023+P36578+P46777+Q02878+P18124+P62424+P62917+P32969+P27635+P62906+P62913+P30050+P26373+P40429+P50914+P61313+P18621+Q07020+Q02543+P84098+P46778+P35268+P62829+P62750+P83731+P61254+P61353+P46776+P46779+P47914+P62888+P62899+P62910+P49207+P42766+P18077+Q9Y3U8+P83881+P61927+P61513+P63173+P62891+P62945+P05388+P05386); experiment: Induction of ribosome to readthrough in human A-T lymphoblastoid cells assessed as ATM ser1981 autophosphorylation at 30 uM after 4 days by PTT-ELISA assay; format: subcellular
[2] = biological target: T1, 80S Ribosome (Homo sapiens); experiment: Induction of ribosome to readthrough in human A-T lymphoblastoid cells assessed as irradiation-induced ATM Ser1981 nuclear foci formation at 30 uM after 4 days by PTT-ELISA; format: subcellular

Structure (SMILES): N=C1NC(=O)/C(=C/c2cn(Cc3ccc(-c4ccccc4[N+](=O)[O-])o3)c(=O)[nH]c2=O)S1
- Flu intensity [1]: 2.42
- Activity [2]: 18%

Structure (SMILES): N=C1NC(=O)/C(=C/c2c[nH]c(=O)[nH]c2=O)S1
- Flu intensity [1]: 5.32
- Activity [2]: 17%

Structure (SMILES): N=C1NC(=O)/C(=C/c2ccc(-c3ccccc3Cl)o2)S1
- Flu intensity [1]: inactive

Structure (SMILES): O=C1NC(=S)S/C1=C\c1ccc(-c2ccccc2Cl)o1
- Flu intensity [1]: 3.55

Structure (SMILES): Cc1cn(Cc2ccc(-c3ccccc3)o2)c(=O)[nH]c1=O
- Flu intensity [1]: 3.8
- Activity [2]: 22.8%

Structure (SMILES): N=C1NC(=O)/C(=C/c2ccc(-c3ccccc3[N+](=O)[O-])o2)S1
- Flu intensity [1]: 3.27

Structure (SMILES): O=C1NC(=S)S/C1=C\c1cc2ccccc2o1
- Flu intensity [1]: 3.5

Structure (SMILES): O=Cc1cn(Cc2ccc(-c3ccccc3[N+](=O)[O-])o2)c(=O)[nH]c1=O
- Flu intensity [1]: 2.24
- Activity [2]: 16%

Structure (SMILES): O=c1ccn(Cc2ccc(-c3ccccc3[N+](=O)[O-])o2)c(=O)[nH]1
- Flu intensity [1]: 4.94
- Activity [2]: 10.7%

Structure (SMILES): N=C1NC(=O)/C(=C/c2ccc(-c3ccccc3)o2)S1
- Flu intensity [1]: inactive

Structure (SMILES): CN1C(=N)S/C(=C\c2ccc(-c3ccccc3[N+](=O)[O-])o2)C1=O
- Flu intensity [1]: inactive

Structure (SMILES): O=C1NC(=S)S/C1=C\c1ccc(-c2ccccc2[N+](=O)[O-])o1
- Flu intensity [1]: inactive

Structure (SMILES): Nc1nc(=O)n(Cc2ccc(-c3ccccc3[N+](=O)[O-])o2)cc1F
- Flu intensity [1]: inactive
- Activity [2]: inactive

Structure (SMILES): COc1cccc(-c2ccc(/C=C3\SC(=N)NC3=O)o2)c1
- Flu intensity [1]: 1.9

Structure (SMILES): COc1ccccc1-c1ccc(/C=C2\SC(=N)NC2=O)o1
- Flu intensity [1]: inactive

Structure (SMILES): N=C1NC(=O)/C(=C/c2ccc(-c3ccccc3)s2)S1
- Flu intensity [1]: inactive

Structure (SMILES): Cc1cn(Cc2ccc(-c3ccccc3F)o2)c(=O)[nH]c1=O
- Flu intensity [1]: 6.16
- Activity [2]: 9.6%

Structure (SMILES): N=C1NC(=O)/C(=C/c2ccc(-c3ccccn3)o2)S1
- Flu intensity [1]: inactive

Structure (SMILES): O=C1NC(=S)S/C1=C\c1ccc(-c2ccccc2F)o1
- Flu intensity [1]: 2.86

Structure (SMILES): COc1cccc(-c2ccc(/C=C3\SC(=S)NC3=O)o2)c1
- Flu intensity [1]: 2.66

Structure (SMILES): O=C1NC(=S)S/C1=C\c1ccc(-c2ccccn2)o1
- Flu intensity [1]: inactive

Structure (SMILES): N=C1NC(=O)/C(=C/c2ccc(-c3ccccc3C(F)(F)F)o2)S1
- Flu intensity [1]: inactive

Structure (SMILES): O=c1ccn(Cc2ccc(-c3cccc(Cl)c3)o2)c(=O)[nH]1
- Flu intensity [1]: 5.07
- Activity [2]: 11.3%

Structure (SMILES): N=C1NC(=O)/C(=C/c2c[nH]c3ccccc23)S1
- Flu intensity [1]: inactive

Structure (SMILES): O=c1[nH]c(=O)n(Cc2ccc(-c3ccccc3[N+](=O)[O-])o2)cc1F
- Flu intensity [1]: 2.08
- Activity [2]: 14.5%

Structure (SMILES): O=c1ccn(Cc2ccc(-c3ccccc3)o2)c(=O)[nH]1
- Flu intensity [1]: 3.42
- Activity [2]: 9.4%

Structure (SMILES): N=C1NC(=O)/C(=C/c2cc3ccccc3o2)S1
- Flu intensity [1]: inactive

Structure (SMILES): N=C1NC(=O)/C(=C/c2ccc(-c3ccccc3F)o2)S1
- Flu intensity [1]: inactive

Structure (SMILES): N=C1NC(=O)/C(=C/c2cc3ccccc3[nH]2)S1
- Flu intensity [1]: inactive

Structure (SMILES): O=C1NC(=S)S/C1=C\c1c[nH]c2ccccc12
- Flu intensity [1]: inactive

Structure (SMILES): N=C1NC(=O)/C(=C/c2ccco2)S1
- Flu intensity [1]: inactive

Structure (SMILES): N=C1NC(=O)/C(=C/c2ccc(-c3cccc(F)c3)o2)S1
- Flu intensity [1]: inactive

Structure (SMILES): O=c1ccn(Cc2ccc(-c3ccccc3F)o2)c(=O)[nH]1
- Flu intensity [1]: 5.43
- Activity [2]: 20%

Structure (SMILES): O=C1NC(=S)S/C1=C\c1ccc(-c2cccc(Cl)c2)o1
- Flu intensity [1]: 2.86

Structure (SMILES): O=C1NC(=S)S/C1=C\c1ccc(-c2ccccc2C(F)(F)F)o1
- Flu intensity [1]: inactive

Structure (SMILES): O=C1NC(=S)S/C1=C\c1ccc(-c2cccc(F)c2)o1
- Flu intensity [1]: 3.44

Structure (SMILES): N=C1NC(=O)/C(=C/c2ccc(-c3cccc(Cl)c3)o2)S1
- Flu intensity [1]: 2.27

Structure (SMILES): Cc1cn(Cc2ccc(-c3ccccc3[N+](=O)[O-])o2)c(=O)[nH]c1=O
- Flu intensity [1]: inactive
- Activity [2]: inactive

Structure (SMILES): O=C1NC(=S)S/C1=C\c1cc2ccccc2[nH]1
- Flu intensity [1]: inactive

Structure (SMILES): COc1ccccc1-c1ccc(/C=C2\SC(=S)NC2=O)o1
- Flu intensity [1]: inactive

Structure (SMILES): Nc1ccn(Cc2ccc(-c3ccccc3[N+](=O)[O-])o2)c(=O)n1
- Flu intensity [1]: inactive
- Activity [2]: inactive
